Read-outs that look alike come from different tables or passages of the source.
How the values were obtained:
[1] = cited from earlier work
[2] = cited from earlier work; remark: listed apart in the source
Protocol: This study evaluated the PK of dalbavancin in ELF and plasma up to 7 days after a single 1,500-mg i.v. infusion in healthy Japanese subjects. Dalbavancin was detectable in bronchial ELF at the earliest time point (4 h postdose) and sustained for ≥7 days, exceeding the MIC90s of S. pneumoniae and S. aureus. While drug exposure at the site of infection is essential for antibacterial activity, the PK/PD parameter associated with efficacy for dalbavancin is AUC/MIC ([3]).

[3] = previously established, cited from earlier work
Protocol: The bioanalysis was conducted to meet current regulated bioanalysis requirements. The sensitivity, accuracy, precision, recovery, carryover, and matrix effect were established, and study samples were analyzed within established appropriate stabilities to cover sample collection, storage, and analysis. Dalbavancin plasma sample stability has previously been established for 368 days at −20 °C and for 56 days at −70°C. Stability of dalbavancin in HUF was established for 46 days at −70 °C. Plasma (370 samples) and ELF (35 samples; samples for each ELF time point collected on 3 BMS probes and analy ...

[4] = Safety and tolerability in the phase 1 study; format: in vivo, human; conditions: 37 subjects; 1,500 mg i.v. single dose
Excerpt: Key inclusion criteria were age between 20 and 55 years and body mass index (BMI) between 18 and 30 kg/m^2. […] Subjects were assigned to cohorts on a first-come, first-served basis. Safety data were collected at each visit (screening [days −28 to −3], baseline [days −3 to −1], and days 1, 2, 4, 6, and 8 to 9) and included adverse events, physical examination, chemistry and hematology assessments (screening/baseline, day 8 to 9), and chest X ray (at screening, to exclude subjects with lung disease, and on the day after BMS sampling).

[5] = Plasma pharmacokinetics after a single 1,500-mg i.v. dalbavancin infusion, phase 1 study; conditions: for Dalbavancin concn, calculated unbound plasma (median): 1,500 mg i.v.
Protocol: (§1) A phase 1 open-label, single-dose, safety, tolerability, and PK study of ELF and plasma concentrations of dalbavancin was conducted between May and June 2015 at the SOUSEIKAI Hakata Clinic in Fukuoka, Japan. The study was approved by the local institutional review board at the site. Thirty-seven healthy, nonsmoking Japanese adult subjects received a 1,500-mg dose of dalbavancin infused for 30 ± 2 min. Thirty-five subjects (5 enrolled in each of 7 cohorts) had bronchoscopy with bronchial microsampling of ELF using a microsampling probe (BC-401C; Olympus, Tokyo, Japan), as described previously ([9]), at one of seven time points from the start of dalbavancin infusion (4, 8, 12, 24, 72, 120, and 168 h). Topical lidocaine viscous was used for gargling; 4% lidocaine liquid by aerosol spray was then used for topical anesthesia in the larynx, followed by bronchoscopy, with additional 1% or 2% lidocaine applied to the vocal cords and lower airway as needed. Sedation was allowed per local standard of care. In the BMS procedure, microsampling catheter sponge probes were inserted carefully through a fiberoptic bronchoscope into the peripheral airways of the right lower lobe, with the inner probe gently in contact with the bronchial lumen for 15 s. Three unique probe samples were obtained from each subject for a specific time point. The tips of the probe samples were cut at 3 cm from the tip of each probe, and each time point sample consisted of three probes placed in a vial for analysis. Ten blood PK samples were collected into K2EDTA vacutainers from all 37 subjects up to 168 h postdose (0.5, 1, 2, 4, 8, 12, 24, 72, 120, and 168 h), and plasma was harvested for sample bioanalysis.
(§2) The dalbavancin ELF and plasma concentrations were measured using a validated liquid chromatography-tandem mass spectrometry (LC-MS/MS) method in each matrix ([14]). The bioanalytical methods were validated at Tandem Labs (West Trenton, NJ) under sponsor oversight. (Covance is the brand of Covance, Inc., and used by Tandem Labs, Inc., and NWT, Inc., wholly owned subsidiaries of Laboratory Corporation of America Holdings.) Because ELF can only be collected via invasive techniques, validation of the method in ELF was conducted in a surrogate matrix of human serum ultrafiltrate (HUF).
(§3) The plasma LC-MS/MS method was validated on an API 4000 (Sciex, Framingham, MA) using plasma protein precipitation for sample cleanup before injection for detection of the analytes of interest. Detection was carried out using positive-mode electrospray with selected reaction monitoring for the mass spectrometer operation mode. In plasma, the calibration range was validated from 0.500 to 500 μg/ml using 50 μl plasma for each analysis, with a lower limit of quantification (LLOQ) of 0.500 μg/ml. The ELF LC-MS/MS method was validated on an API 5000 (Sciex) using dilution for sample preparation before analysis. For ELF, the calibration range was validated from 0.010 to 2.00 μg/ml using 75 μl sample volume (study sample[s] consisted of ELF; and standards, blanks, and quality controls consisted of HUF in extraction solvent of 40:60 acetonitrile:water), with an LLOQ of 0.010 μg/ml. Detection was carried out using positive-mode electrospray with selected reaction monitoring for the mass spectrometer operation mode. A structural analog of dalbavancin, diethylamide of dalbavancin, was used as an internal standard in both methods in support of quantitation of dalbavancin.
(§4) Statistical analyses of safety parameters were performed using version 9.3 of SAS (SAS Institute, Inc., Cary, NC) on a LINUX operating system. Noncompartmental PK parameters based on plasma and ELF dalbavancin concentrations were determined for individual subjects, and descriptive statistics were performed using the software program Phoenix WinNonlin (version 6.2; Pharsight Corporation, Cary, NC). Plasma concentrations below the LLOQ were treated as 0 for all PK calculations.

S. pneumoniae [6] = conditions: in vivo, iv
[7] = Epithelial lining fluid (ELF) concentrations by bronchial microsampling after a single 1,500-mg infusion; conditions: for Dalbavancin concn, ELF (median) / Dalbavancin concn, ELF (mean [SD]): 1,500 mg i.v., LC-MS/MS
Protocol: as §1, §2, §3, §4

[8] = test system: penicillin-resistant S. pneumoniae; conditions: single dose, rats with lobar pneumonia; cited from earlier work
Excerpt: (§5) Dalbavancin has been used off label for treatment of MRSA pneumonia in a patient treated with vancomycin who ...

S. pneumoniae [9] = conditions: single dose; immunocompetent and neutropenic rats; penicillin-susceptible and penicillin-resistant S. pneumoniae; cited from earlier work
Excerpt: as §5

MRSA = conditions: one patient switched from vancomycin to dalbavancin 1,500 mg; cited from earlier work
Excerpt: as §5

[10] = cited from earlier work; remark: listed apart in the source
Excerpt: (§6) Dalbavancin is 93% protein bound in plasma ([1]), and the pharmacokinetic/pharmacodynamic (PK/PD) parameter best associated with efficacy is area under the concentratio ...

S. aureus [11] = test system: S. aureus; set-up: method as in earlier work; conditions: cited from earlier work
Excerpt: as §6

S. pneumoniae [12] = test system: S. pneumoniae; set-up: method as in earlier work; conditions: cited from earlier work
Excerpt: as §6

S. aureus [13] = conditions: in vivo, iv
[14] = 8 healthy subjects, 1,500 mg dalbavancin, ref Allergan, data on file
[15] = 1,500 mg i.v. single dose, bronchial microsampling
[16] = 8 h, bronchial microsampling, 5 subjects
[17] = 12 h, bronchial microsampling, 5 subjects
[18] = 24 h, bronchial microsampling, 5 subjects
[19] = 72 h, bronchial microsampling, 5 subjects
[20] = 120 h, bronchial microsampling, 5 subjects

CN[C@H]1C(=O)N[C@@H]2Cc3ccc(cc3)Oc3cc4cc(c3O[C@@H]3O[C@H](C(=O)O)[C@@H](O)[C@H](O)[C@H]3NC(=O)CCCCCCCCC(C)C)Oc3ccc(cc3Cl)[C@@H](O)[C@@H]3NC(=O)[C@H](NC(=O)[C@@H]4NC(=O)[C@@H](NC2=O)c2cc(cc(O)c2Cl)Oc2cc1ccc2O)c1ccc(O)c(c1)-c1c(O[C@H]2O[C@H](CO)[C@@H](O)[C@H](O)[C@@H]2O)cc(O)cc1[C@@H](C(=O)NCCCN(C)C)NC3=O [Dalbavancin]
solubility in saline [1]: not soluble in saline | plasma AUC0–24, mean (SD) [2, 14]: 5,202.55 (620.05) μg · h/ml | plasma Cmax, mean (SD) [2, 14]: 467.63 (55.73) μg/ml | mean Tmax ([2]; 8 healthy subjects, 1,500 mg, range 0.5 to 0.5, ref Allergan, data on file): 30 min | median Tmax ([2]; 49 subjects, 1,500 mg dalbavancin): 37.2 min | plasma sample stability established for ([3]; −20 °C): 368 days | plasma sample stability established for ([3]; −70°C): 56 days | clinical laboratory parameters [4]: no observed safety concerns in clinical laboratory parameters | serious AEs [4]: no serious AEs | severity of treatment-emergent AEs [4]: all were mild | subjects with at least one treatment-emergent adverse event (AE) [4]: Five | treatment-emergent AEs leading to withdrawal from study-drug therapy [4]: no treatment-emergent AEs leading to withdrawal from study-drug therapy | plasma AUC0–168, mean (SD) ([5]; 1,500 mg i.v. single dose, noncompartmental): 21,087 (2,282) μg · h/ml | Dalbavancin concn, calculated unbound plasma (median) ([5]; 4 h, calculated with 93% protein binding (unbound fraction 7%)): 20 µg/mL | Dalbavancin concn, calculated unbound plasma (median) ([5]; 8 h, calculated with unbound fraction 7%): 16 µg/mL | Dalbavancin concn, calculated unbound plasma (median) ([5]; 12 h, calculated with unbound fraction 7%): 14 µg/mL | Dalbavancin concn, calculated unbound plasma (median) ([5]; 24 h, calculated with unbound fraction 7%): 12 µg/mL | Dalbavancin concn, calculated unbound plasma (median) ([5]; 72 h, calculated with unbound fraction 7%): 8 µg/mL | Dalbavancin concn, calculated unbound plasma (median) ([5]; 120 h, calculated with unbound fraction 7%): 7 µg/mL | Dalbavancin concn, calculated unbound plasma (median) ([5]; 168 h, calculated with unbound fraction 7%): 6 µg/mL | Tmax ([5]; human, in vivo, iv): 30 min | clearance ([5]; human, in vivo, iv): 0.683 mL/min | level at 0.5 h ([5]; human, in vivo, iv, 1500 mg): 442 µg/mL | level at 1 h ([5]; human, in vivo, iv, 1500 mg): 397 µg/mL | level at 2 h ([5]; human, in vivo, iv, 1500 mg): 331 µg/mL | level at 8 h ([5]; human, in vivo, iv, 1500 mg): 222 µg/mL | level at 12 h ([5]; human, in vivo, iv, 1500 mg): 194 µg/mL | level at 24 h ([5]; human, in vivo, iv, 1500 mg): 169 µg/mL | level at 72 h ([5]; human, in vivo, iv, 1500 mg): 120 µg/mL | level at 120 h ([5]; human, in vivo, iv, 1500 mg): 94 µg/mL | time ELF levels exceeded the MIC90 of S. pneumoniae (S. pneumoniae [6]): ≥ 7 days | ELF AUC0–168 (median) [7, 15]: 527 µg·h/mL | ELF Cmax (median) [7, 15]: 4 µg/mL | ELF Tmax (median) [7, 15]: 72 h | Dalbavancin concn, ELF (median) ([7]; 4 h, bronchial microsampling, 5 subjects per time point): 1.9 µg/mL | Dalbavancin concn, ELF (mean [SD]) ([7]; 4 h, bronchial microsampling, 5 subjects): 1.9 (1.0) μg/ml | Dalbavancin concn, ELF (mean [SD]) [7, 16]: 3.1 (1.9) μg/ml | Dalbavancin concn, ELF (median) [7, 16]: 2.2 µg/mL | Dalbavancin concn, ELF (mean [SD]) [7, 17]: 3.6 (2.1) μg/ml | Dalbavancin concn, ELF (median) [7, 17]: 2.8 µg/mL | Dalbavancin concn, ELF (mean [SD]) [7, 18]: 2.7 (0.5) μg/ml | Dalbavancin concn, ELF (median) [7, 18]: 2.6 µg/mL | Dalbavancin concn, ELF (mean [SD]) [7, 19]: 7.3 (8.2) μg/ml | Dalbavancin concn, ELF (median) [7, 19]: 4.2 µg/mL | Dalbavancin concn, ELF (mean [SD]) [7, 20]: 11.9 (20.1) μg/ml | Dalbavancin concn, ELF (median) [7, 20]: 3.3 µg/mL | Dalbavancin concn, ELF (median) ([7]; 168 h (7 days), bronchial microsampling, 5 subjects): 2.1 µg/mL | Dalbavancin concn, ELF (mean [SD]) ([7]; 168 h, bronchial microsampling, 5 subjects): 2.0 (0.6) μg/ml | penetration of dalbavancin into ELF ([7]; ratio of AUC in ELF to unbound AUC in plasma (7% of AUC0–168)): 36% | lung bacterial load [8]: significant reduction in the lung bacterial load | bacterial counts in the lungs (S. pneumoniae [9]): reduction of bacterial counts observed in the lungs | MRSA in sputum cultures (MRSA): subsequent clearance of MRSA in sputum cultures | protein bound in plasma [10]: 93% | terminal half-life [10]: 14.4 days | time plasma concentrations maintained above the MIC90 for most Gram-positive pathogens, including S. aureus ([10]; single dose of 1,500 mg i.v.): at least 2 weeks | effect of surfactant on in vitro activity (S. aureus [11]): does not appear to be appreciably affected by the presence of surfactant | effect of surfactant on in vitro activity (S. pneumoniae [12]): does not appear to be appreciably affected by the presence of surfactant | time ELF levels exceeded the MIC90 of S. aureus (S. aureus [13]): ≥ 7 days

Reference: paper PMC6811436, “Epithelial Lining Fluid and Plasma Concentrations of Dalbavancin in Healthy Adults after a Single 1,500-Milligram Infusion” (Antimicrobial Agents and Chemotherapy, 2019)
